The values that follow come from ChEMBL document CHEMBL2346539, “Effects of geraniin on osteoclastic bone resorption and matrix metalloproteinase-9 expression” (2013).

Activity calls are given as the source filed them. The rule behind the calls is not given here.

Experiment [1] is described as follows: Reduction of MMP9 protein expression in rat osteoclasts assessed as reduction in mean optical density by immunocytochemistry analysis. The settings on record: Osteoclast. It is filed as functional, cell-based.
Experiment [2] can be described thus: Reduction of MMP9 mRNA expression in rat osteoclasts assessed as reduction in mean optical density at 10^-8 mol/L by in situ hybridization assay. It counts as functional, cell-based. The note with it: Osteoclast.
In experiment [3] the test system is Osteoclast. Put plainly: Reduction in number of resorption pits in rat osteoclasts-stimulated bovine bone at 10^-8 mol/L co-cultured for 72 hrs using toluidine blue staining by SEM analysis. It counts as functional, cell-based.
Experiment [4] has as its system Osteoclast. Put plainly: Inhibition of rat osteoclasts-induced resorption in bovine bone co-cultured for 72 hrs using toluidine blue staining by SEM analysis. It is filed as functional, cell-based.
Experiment [5] is described as follows: Reduction of MMP9 mRNA expression in rat osteoclasts assessed as reduction in integral optical density at 10^-8 mol/L by in situ hybridization assay. It counts as functional, cell-based. The settings on record: Osteoclast.
Experiment [6] concerns Bone. Nature of the experiment: Inhibition of osteoclastogenesis in Sprague-Dawley rat bone assessed as inhibition of fusion index at 10^-10 mol/L after 72 hrs by microscopy. It is filed as functional. The note with it: Bone element.
The nature of experiment [7]: Reduction of MMP9 protein expression in rat osteoclasts assessed as reduction in integral optical density by immunocytochemistry analysis. It is filed as functional, cell-based. The settings on record: Osteoclast.
For experiment [8], the system named is Bone. Put plainly: Inhibition of osteoclastogenesis in Sprague-Dawley rat bone assessed as inhibition of fusion index at 10^-8 mol/L after 72 hrs by microscopy. It is filed as functional. The settings on record: Bone element.
The subject of experiment [9] is Bone. Put plainly: Reduction in number of pre-osteoclasts in Sprague-Dawley rat bone at 10^-8 mol/L after 72 hrs by microscopy. The settings on record: Bone element. It counts as functional, tissue-based.
Experiment [10] concerns Bone. Nature of the experiment: Inhibition of osteoclastogenesis in Sprague-Dawley rat bone assessed as decrease in TRAP-positive multi-nucleated cells after 72 hrs by microscopy. It counts as functional, tissue-based. The settings on record: Bone element.
Experiment [11] deals with Osteoclast. Put plainly: Inhibition of rat osteoclasts-induced resorption in bovine bone at 10^-8 mol/L co-cultured for 72 hrs using toluidine blue staining by SEM analysis. It is filed as functional, cell-based.
Experiment [12] has as its system Bone. Nature of the experiment: Inhibition of osteoclastogenesis in Sprague-Dawley rat bone assessed as decrease in TRAP-positive multi-nucleated cells at 10^-8 mol/L after 72 hrs by microscopy. It is filed as functional, tissue-based. The settings on record: Bone element.
For experiment [13], the system named is Bone. Nature of the experiment: Inhibition of osteoclastogenesis in Sprague-Dawley rat bone assessed as inhibition of fusion index at 10^-11 mol/L after 72 hrs by microscopy. It counts as functional. The settings on record: Bone element.
Experiment [14] concerns Bone. Put plainly: Inhibition of osteoclastogenesis in Sprague-Dawley rat bone assessed as inhibition of fusion index at 10^-9 mol/L after 72 hrs by microscopy. It is filed as functional. The settings on record: Bone element.

Usually inhibition stands for the change of the read-out against control, counted positive when it falls. Take `O=C1O[C@H]2[C@@H]3OC(=O)c4cc(O)c(O)c(O)c4-c4c(cc(O)c(O)c4O)C(=O)OC[C@H]2O[C@@H](OC(=O)c2cc(O)c(O)c(O)c2)[C@@H]3OC(=O)c2cc(O)c(O)c3c2[C@@H]2C1=CC(=O)[C@](O)(O3)C2(O)O` [GERANIIN]: the Activity entry in [1] and in [7] was “Dose-dependent effect” in each case. Further, the outcome (in experiment [2]; in the experiment with Osteoclast [3]; in [5]; in the experiment on Bone [9]) was Active. Besides, the inhibition entry in the experiment on Osteoclast [4] and in the experiment on Bone [10] was “Dose-dependent effect” each time. In addition, the inhibition at 0.0001 µM with Bone [6] came out at 9.31%. The inhibition at 0.01 µM in the experiment with Bone [8] was 46%. Also, the inhibition entry in the experiment with Osteoclast [11] and in the experiment with Bone [12] was “Active” each time. Further, in the experiment on Bone [13], the inhibition at 10 pM is 3.05%. Further, the inhibition at 0.001 µM in the experiment on Bone [14] was determined as 24.2%.
